In PubChem BioAssay AID328 (DTP/NCI, 2004):
Where “and” joins values, the source holds several entries; their conditions need not be identical. Equal entries are not always repeated. Inconclusive results and toxic doses are left out. Rule for the calls: active = survival T/C of 150% or more; inactive = T/C below 125% in these data.

Tested on: BDF1 mice, P388 leukemia ip, median survival T/C
Assay: NCI In Vivo Anticancer Drug Screen. Data for tumor model P388 Leukemia (intraperitoneal) in B6D2F1 (BDF1) mice
Settings: endpoint: median survival time, higher = longer survival
Outline: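 Transplantable tumour in mice; compound vs vehicle dosing; survival scored; ratio of treated to control reported.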

[1] = dose: 100.0 mg/kg/injection, schedule: Q04DX003 (ip), vehicle: Klucel (hydroxypropylcellulose) (HPC)
[2] = dose: 50.0 mg/kg/injection, schedule: Q01DX009 (ip), vehicle: saline
[3] = dose: 100.0 mg/kg/injection, schedule: Q01DX009 (ip), vehicle: saline
[4] = dose: 200.0 mg/kg/injection, schedule: Q01DX009 (ip), vehicle: saline
[5] = dose: 100.0 mg/kg/injection, schedule: Q01DX001 (ip), vehicle: saline with Tween-80
[6] = dose: 200.0 mg/kg/injection, schedule: Q01DX001 (ip), vehicle: saline with Tween-80
[7] = dose: 100.0 mg/kg/injection, schedule: Q01DX009 (ip), vehicle: saline with Tween-80
[8] = dose: 200.0 mg/kg/injection, schedule: Q01DX009 (ip), vehicle: saline with Tween-80
[9] = dose: 25.0 mg/kg/injection, schedule: Q01DX009 (ip), vehicle: water
[10] = dose: 50.0 mg/kg/injection, schedule: Q01DX009 (ip), vehicle: water
[11] = dose: 50.0 mg/kg/injection, schedule: Q01DX009 (ip), vehicle: saline with Tween-80

Measured: T/C

Cc1cc(OCc2nc(N)nc(N)c2-c2ccc(Cl)c(Cl)c2)ccc1NS(=O)(=O)c1cccc(S(=O)(=O)F)c1
inactive: dose: 45.0 mg/kg/injection, schedule: Q04DX003 (ip), vehicle: Klucel (hydroxypropylcellulose) (HPC) 109 % of control | dose: 65.0 mg/kg/injection, schedule: Q04DX003 (ip), vehicle: Klucel (hydroxypropylcellulose) (HPC) 118 % of control | [1] 122 % of control
active: dose: 264.0 mg/kg/injection, schedule: Q04DX003 (ip), vehicle: Klucel (hydroxypropylcellulose) (HPC) 175 % of control | dose: 400.0 mg/kg/injection, schedule: Q04DX003 (ip), vehicle: Klucel (hydroxypropylcellulose) (HPC) 170 % of control

COC(=O)CCc1c[nH]c2ccc(N(CCCl)CCCl)cc12
active: dose: 0.1 mg/kg/injection, schedule: Q01DX009 (ip), vehicle: saline with Tween-80 154 % of control and 163 % of control | dose: 0.2 mg/kg/injection, schedule: Q01DX009 (ip), vehicle: saline with Tween-80 172 % of control | dose: 0.25 mg/kg/injection, schedule: Q04DX003 (ip), vehicle: saline with Tween-80 166 % of control | dose: 0.3 mg/kg/injection, schedule: Q01DX009 (ip), vehicle: saline with Tween-80 155 % of control and 181 % of control | dose: 0.5 mg/kg/injection, schedule: Q04DX003 (ip), vehicle: saline with Tween-80 170 % of control | dose: 0.8 mg/kg/injection, schedule: Q01DX009 (ip), vehicle: saline with Tween-80 166 % of control | dose: 1.0 mg/kg/injection, schedule: Q04DX003 (ip), vehicle: saline with Tween-80 241 % of control | dose: 1.25 mg/kg/injection, schedule: Q01DX009 (ip), vehicle: saline with Tween-80 196 % of control and 212 % of control | dose: 1.3 mg/kg/injection, schedule: Q04DX003 (ip), vehicle: saline with Tween-80 205 % of control | dose: 2.0 mg/kg/injection, schedule: Q04DX003 (ip), vehicle: saline with Tween-80 265 % of control and 217 % of control | dose: 2.5 mg/kg/injection, schedule: Q01DX009 (ip), vehicle: saline with Tween-80 250 % of control | dose: 3.0 mg/kg/injection, schedule: Q04DX003 (ip), vehicle: saline with Tween-80 260 % of control and 290 % of control | dose: 4.4 mg/kg/injection, schedule: Q04DX003 (ip), vehicle: saline with Tween-80 280 % of control and 300 % of control | dose: 4.5 mg/kg/injection, schedule: Q04DX003 (ip), vehicle: saline with Tween-80 260 % of control | dose: 6.7 mg/kg/injection, schedule: Q04DX003 (ip), vehicle: saline with Tween-80 300 % of control | dose: 6.75 mg/kg/injection, schedule: Q04DX003 (ip), vehicle: saline with Tween-80 260 % of control | dose: 10.0 mg/kg/injection, schedule: Q04DX003 (ip), vehicle: saline with Tween-80 200 % of control | dose: 40.0 mg/kg/injection, schedule: Q04DX003 (ip), vehicle: saline with Tween-80 272 % of control
inactive: dose: 0.03 mg/kg/injection, schedule: Q04DX003 (ip), vehicle: saline with Tween-80 105 % of control | dose: 0.04 mg/kg/injection, schedule: Q01DX009 (ip), vehicle: saline with Tween-80 122 % of control | dose: 0.16 mg/kg/injection, schedule: Q04DX003 (ip), vehicle: saline with Tween-80 113 % of control | dose: 0.63 mg/kg/injection, schedule: Q04DX003 (ip), vehicle: saline with Tween-80 113 % of control | dose: 15.0 mg/kg/injection, schedule: Q04DX003 (ip), vehicle: saline with Tween-80 120 % of control

COc1cc(C(C2=C(O)c3ccccc3C(=O)C2=O)C2=C(O)c3ccccc3C(=O)C2=O)cc(Br)c1O
inactive: dose: 33.0 mg/kg/injection, schedule: Q01DX001 (ip), vehicle: saline 95 % of control | dose: 50.0 mg/kg/injection, schedule: Q01DX001 (ip), vehicle: saline 104 % of control | dose: 75.0 mg/kg/injection, schedule: Q01DX001 (ip), vehicle: saline 100 % of control | dose: 100.0 mg/kg/injection, schedule: Q01DX001 (ip), vehicle: saline 115 % of control | dose: 200.0 mg/kg/injection, schedule: Q01DX001 (ip), vehicle: saline 110 % of control

CC(C)NCC(O)COc1ccc2ncsc2c1 (configuration not stated)
inactive: [2] 108 % of control | [3] 110 % of control | [4] 91 % of control

COc1ccc(/C=C(/C)[N+](=O)[O-])cc1OC
inactive: dose: 50.0 mg/kg/injection, schedule: Q01DX001 (ip), vehicle: saline with Tween-80 109 % of control | [5] 113 % of control | [1] 104 % of control | [6] 118 % of control | dose: 200.0 mg/kg/injection, schedule: Q04DX003 (ip), vehicle: Klucel (hydroxypropylcellulose) (HPC) 109 % of control

COc1ccc(SC/C(=N\NOS(=O)(=O)c2ccc(C)cc2)c2ccccc2)cc1
inactive: [2] 96 % of control | [3] 98 % of control | [4] 109 % of control

C[C@]12CCC(=O)C(O)=C1CC[C@@H]1[C@@H]2CC[C@@]2(C)[C@H]1CC[C@]2(C)O
inactive: dose: 66.0 mg/kg/injection, schedule: Q01DX009 (ip), vehicle: saline with Tween-80 104 % of control | [7] 95 % of control | dose: 150.0 mg/kg/injection, schedule: Q01DX009 (ip), vehicle: saline with Tween-80 95 % of control | dose: 200.0 mg/kg/injection, schedule: Q01DX009 (ip), vehicle: saline sonified 90 % of control | dose: 400.0 mg/kg/injection, schedule: Q01DX009 (ip), vehicle: saline sonified 90 % of control

CC1CC2CCCCN2O1 (configuration not stated)
inactive: dose: 100.0 mg/kg/injection, schedule: Q04DX002 (ip), vehicle: saline with Tween-80 102 % of control | dose: 200.0 mg/kg/injection, schedule: Q04DX002 (ip), vehicle: saline with Tween-80 103 % of control | dose: 400.0 mg/kg/injection, schedule: Q04DX002 (ip), vehicle: saline with Tween-80 105 % of control

O=C(/C=C/c1cccc(Br)c1)NCC(O)CO (configuration not stated)
inactive: [8] 95 % of control | dose: 400.0 mg/kg/injection, schedule: Q01DX009 (ip), vehicle: saline with Tween-80 87 % of control

CC1(O)C=CC(=O)C=C1
active: [9] 157 % of control | [10] 173 % of control

CCN(CC)CCNc1ccc([N+](=O)[O-])c2sc3ccccc3c(=O)c12
active: dose: 50.0 mg/kg/injection, schedule: Q01DX009 (ip), vehicle: saline sonified 177 % of control
inactive: dose: 100.0 mg/kg/injection, schedule: Q01DX009 (ip), vehicle: saline sonified 95 % of control

CC(C)=CC(=O)OCC1CC[N+](C)(C)C1 (configuration not stated)
inactive: dose: 25.0 mg/kg/injection, schedule: Q01DX009 (ip), vehicle: saline 111 % of control | [2] 100 % of control

Cc1ccc(/C=C2\NC(=O)NC2=O)cc1
inactive: [9] 106 % of control | [10] 106 % of control | dose: 50.0 mg/kg/injection, schedule: Q04DX003 (ip), vehicle: water 94 % of control | dose: 100.0 mg/kg/injection, schedule: Q01DX009 (ip), vehicle: water 95 % of control | dose: 100.0 mg/kg/injection, schedule: Q04DX003 (ip), vehicle: water 106 % of control | dose: 200.0 mg/kg/injection, schedule: Q01DX009 (ip), vehicle: water 98 % of control | dose: 200.0 mg/kg/injection, schedule: Q04DX003 (ip), vehicle: water 103 % of control | dose: 400.0 mg/kg/injection, schedule: Q01DX009 (ip), vehicle: water 94 % of control | dose: 400.0 mg/kg/injection, schedule: Q04DX003 (ip), vehicle: water 97 % of control

O=C(Nc1ccccc1)C1(Br)CC2(C1)CC(Br)(C(=O)Nc1ccccc1)C2 (configuration not stated)
inactive: [5] 92 % of control | [6] 99 % of control

COCC(N)=O
inactive: [3] 106 % of control | [4] 97 % of control | dose: 400.0 mg/kg/injection, schedule: Q01DX009 (ip), vehicle: saline 113 % of control

Cc1cc(=O)n(Cc2ccco2)c(=S)[nH]1
inactive: dose: 50.0 mg/kg/injection, schedule: Q01DX005 (ip), vehicle: saline with Tween-80 98 % of control | dose: 100.0 mg/kg/injection, schedule: Q01DX005 (ip), vehicle: saline with Tween-80 93 % of control

O=[N+]([O-])c1cccc(/C=C/c2cc(N(CCO)CCO)c3ccccc3n2)c1
inactive: [11] 91 % of control | [7] 89 % of control | [8] 94 % of control

Cc1c[se]c(=S)s1
inactive: dose: 25.0 mg/kg/injection, schedule: Q01DX009 (ip), vehicle: saline with Tween-80 101 % of control | [11] 96 % of control | [7] 98 % of control
